Experiments:
Human 5-HT Receptor [1] = target: T1, Human 5-HT Receptor (Homo sapiens, UniProt P31645); experiment: Displacement of serotonin ligands in vitro (uptake profile); type: binding
Human DA Receptor [2] = target: T2, Human DA Receptor (Homo sapiens, UniProt Q01959); experiment: Displacement of dopamine ligands in vitro (uptake profile)
Human NE Receptor [3] = target: T3, Human NE Receptor (Homo sapiens, UniProt P23975); experiment: Displacement of norephinephrine ligands in vitro (uptake profile); type: binding
T3 sequence (P23975 whole entry): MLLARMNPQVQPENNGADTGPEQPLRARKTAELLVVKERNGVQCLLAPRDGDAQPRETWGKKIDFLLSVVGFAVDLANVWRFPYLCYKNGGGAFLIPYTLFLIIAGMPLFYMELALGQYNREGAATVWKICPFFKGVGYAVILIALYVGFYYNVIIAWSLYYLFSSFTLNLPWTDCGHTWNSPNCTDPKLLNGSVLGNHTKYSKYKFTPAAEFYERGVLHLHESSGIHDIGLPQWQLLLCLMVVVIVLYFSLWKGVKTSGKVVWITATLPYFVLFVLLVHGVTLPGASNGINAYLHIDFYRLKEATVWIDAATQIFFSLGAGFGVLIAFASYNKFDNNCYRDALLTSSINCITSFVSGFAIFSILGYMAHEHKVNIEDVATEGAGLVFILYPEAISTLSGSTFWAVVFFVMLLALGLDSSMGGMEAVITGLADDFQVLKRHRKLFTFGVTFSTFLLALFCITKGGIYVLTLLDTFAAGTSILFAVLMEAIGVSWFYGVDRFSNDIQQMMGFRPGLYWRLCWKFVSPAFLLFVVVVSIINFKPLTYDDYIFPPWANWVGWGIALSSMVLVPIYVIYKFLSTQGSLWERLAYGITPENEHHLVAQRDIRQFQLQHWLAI

Human 5-HT Receptor [4] = target: T1, Human 5-HT Receptor; experiment: Functional activity for serotonin uptake inhibition in human HEK-293 cell lines; type: cell-based; design: expressed in transfected cells; host or cells: HEK-293; conditions: read-out: Functional Assays (EC50, nM) Human 5-HT Receptor
Human DA Receptor [5] = target: T2, Human DA Receptor; experiment: Dopamine functional activity in hDAT cell line; type: cell-based; design: expressed in transfected cells; conditions: read-out: Functional Assays (EC50, nM) Human DA Receptor
Human NE Receptor [6] = target: T3, Human NE Receptor; experiment: Functional activity for norephinephrine uptake inhibition in MDCK cell lines; type: cell-based; conditions: read-out: Functional Assays (EC50, nM) Human NE Receptor

T2 sequence (Q01959 whole entry): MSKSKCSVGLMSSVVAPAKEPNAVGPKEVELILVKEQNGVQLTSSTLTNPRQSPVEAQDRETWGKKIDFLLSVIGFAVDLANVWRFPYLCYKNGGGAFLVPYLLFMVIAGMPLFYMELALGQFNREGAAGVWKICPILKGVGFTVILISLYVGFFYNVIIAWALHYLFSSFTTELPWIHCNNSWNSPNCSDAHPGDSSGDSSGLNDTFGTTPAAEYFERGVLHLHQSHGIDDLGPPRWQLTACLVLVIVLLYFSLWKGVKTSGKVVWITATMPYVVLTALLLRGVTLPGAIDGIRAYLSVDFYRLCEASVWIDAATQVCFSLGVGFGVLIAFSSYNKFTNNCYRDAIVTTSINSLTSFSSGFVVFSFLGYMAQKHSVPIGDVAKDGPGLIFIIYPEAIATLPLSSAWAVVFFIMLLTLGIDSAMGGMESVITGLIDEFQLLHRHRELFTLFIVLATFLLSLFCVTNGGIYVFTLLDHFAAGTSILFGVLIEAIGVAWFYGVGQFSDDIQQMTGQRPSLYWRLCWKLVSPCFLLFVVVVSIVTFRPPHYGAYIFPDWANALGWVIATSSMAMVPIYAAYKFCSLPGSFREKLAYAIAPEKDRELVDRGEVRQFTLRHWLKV
T1 sequence (P31645 whole entry): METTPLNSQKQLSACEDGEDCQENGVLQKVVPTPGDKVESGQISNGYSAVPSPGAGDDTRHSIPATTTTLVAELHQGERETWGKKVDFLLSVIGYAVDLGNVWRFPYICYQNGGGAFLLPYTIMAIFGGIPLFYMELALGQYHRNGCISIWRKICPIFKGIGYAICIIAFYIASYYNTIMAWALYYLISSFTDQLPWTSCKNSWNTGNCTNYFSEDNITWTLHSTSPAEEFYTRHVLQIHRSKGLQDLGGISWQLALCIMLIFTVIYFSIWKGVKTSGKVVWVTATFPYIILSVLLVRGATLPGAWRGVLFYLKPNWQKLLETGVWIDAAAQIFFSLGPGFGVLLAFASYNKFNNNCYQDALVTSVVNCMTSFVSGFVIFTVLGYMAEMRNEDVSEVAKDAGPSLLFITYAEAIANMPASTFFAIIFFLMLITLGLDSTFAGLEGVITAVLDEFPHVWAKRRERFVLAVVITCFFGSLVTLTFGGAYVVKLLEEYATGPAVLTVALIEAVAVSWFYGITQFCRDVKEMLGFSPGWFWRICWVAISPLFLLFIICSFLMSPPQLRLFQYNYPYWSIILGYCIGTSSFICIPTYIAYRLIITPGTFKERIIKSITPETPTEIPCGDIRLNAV

SMILES	IC50 (Human 5-HT Receptor [1]) [nM]	IC50 (Human DA Receptor [2]) [nM]	IC50 (Human NE Receptor [3]) [nM]	EC50 (Human 5-HT Receptor [4]) [nM]	EC50 (Human DA Receptor [5]) [nM]	EC50 (Human NE Receptor [6]) [nM]
FC(F)(F)c1ccc(OCCC2CCCCN2CC2(c3ccc(Cl)cc3)CCC2)cc1 (stereo not drawn) [Compound 7, 1-[1-(4-Chloro-phenyl)-cyclobutylmethyl]-2-[2-(4-trifluoromethyl-phenoxy)-ethyl]-piperidine]	> 1000	< 100	< 1000			
O=C(CCCN1CCCCC1CCOc1ccc(C(F)(F)F)cc1)c1ccc(F)cc1 (stereo not drawn) [Compound 32, 1-(4-Fluoro-phenyl)-4-{2-[2-(4-trifluoromethyl-phenoxy)-ethyl]-piperidin-1-yl}-butan-1-one]				< 1000	< 1000	> 1000
CN1CCN(CC(O)c2ccc(Cl)cc2)C(CCc2ccc(C(F)(F)F)cc2)C1 (stereo not drawn) [Compound 30, 1-(4-Chloro-phenyl)-2-{4-methyl-2-[2-(4-trifluoromethyl-phenyl)-ethyl]-piperazin-1-yl}-ethanol]				< 1000	> 1000	> 1000

Next, values leading:

IC50 (Human 5-HT Receptor [1]) [nM]	IC50 (Human DA Receptor [2]) [nM]	IC50 (Human NE Receptor [3]) [nM]	EC50 (Human 5-HT Receptor [4]) [nM]	EC50 (Human DA Receptor [5]) [nM]	EC50 (Human NE Receptor [6]) [nM]	SMILES
> 1000	> 1000	> 1000				CC(CN1CCCCC1CCOc1ccc(C(F)(F)F)cc1)C(=O)c1ccc(Cl)cc1 (stereo not drawn) [Compound 13, 1-(4-Chloro-phenyl)-2-methyl-3-{2-[2-(4-trifluoromethyl-phenoxy)-ethyl]-piperidin-1-yl}-propan-1-one]
< 1000	< 100	< 1000				CC(CN1CCCCC1CCOc1ccc(C(F)(F)F)cc1)C(O)c1ccc(Cl)cc1 (stereo not drawn) [Compound 14, 1-(4-Chloro-phenyl)-2-methyl-3-{2-[2-(4-trifluoromethyl-phenoxy)-ethyl]-piperidin-1-yl}-propan-1-ol]
< 1000	< 10	< 100				OC(CN1CCCCC1CCOc1ccc(C(F)(F)F)cc1)C1(c2ccc(Cl)c(Cl)c2)CCC1 (stereo not drawn) [Compound 18, 1-[1-(3,4-Dichloro-phenyl)-cyclobutyl]-2-{2-[2-(4-trifluoromethyl-phenoxy)-ethyl]-piperidin-1-yl}-ethanol]
< 1000	< 10	< 100	< 100	< 100	< 10	O[C@H](CN1CCCCC1CCOc1ccc(C(F)(F)F)cc1)C1(c2ccc(Cl)cc2)CCC1 (stereo partly drawn) [Compound 9, 1-[1-(4-Chloro-phenyl)-cyclobutyl]-2-{2-[2-(4-trifluoromethyl-phenoxy)-ethyl]-piperidin-1-yl}-S-ethanol]
